Test [1] has as its system pharynx::SLC6A4. The experiment in a line: ScreenChip pharyngeal pumping frequency in SLC6A4 transgenic C. elegans. The class given is in vivo. As to conditions: 10 mM serotonin, first-day adults, 20 minutes incubation; FIG. 2B. An excerpt: Provided herein are transgenic nematodes and methods of preparing same for expression, as well as methods for using the same drug discovery for human therapeutic targets, such as that illustrated in FIG. 1 and described in more detail herein, wherein the therapeutic target gene is first optimized for expression in a host nematode and then incorporated into the genome of the nematode. Human Solute Carrier Family 6 Member 4 (SLC6A4) is known to transport serotonin out of the synaptic space, thus terminating the action of serotonin. […] Inhibitors of SLC6A4, selective serotonin reuptake inhibitors (SSRls), are commonly used to treat major depressive disorder and anxiety but are also known to cause many unpleasant side-effects. New SSRls can be discovered using the SLC6A4 overexpressing C. elegans transgenic nematodes described in this illustrative example. As shown below, C. elegans transgenic animals overexpressing human SLC6A4 in the pharyngeal muscle show a decrease in pumping frequency when stimulated to pump by food (a mild stimulus) as compared to the wildtype. These animals can be screened to identify novel SSRls. […] Each EPG recording is two minutes in duration and the experiment is replicated in triplicate on different days. […]

The subject of test [2] is C. elegans. The experiment in a line: phenotypic assay (% adult survival). The class given is in vivo.
Test [3] concerns the target T1, DAF-12 (Caenorhabditis elegans, UniProt G5EFF5).
T1 construct: endogenous in cells; host or cells: whole C. elegans animals carrying lin-42::GFP or mtl-1::GFP promoter-fusion reporters
T1 sequence (G5EFF5 1-753): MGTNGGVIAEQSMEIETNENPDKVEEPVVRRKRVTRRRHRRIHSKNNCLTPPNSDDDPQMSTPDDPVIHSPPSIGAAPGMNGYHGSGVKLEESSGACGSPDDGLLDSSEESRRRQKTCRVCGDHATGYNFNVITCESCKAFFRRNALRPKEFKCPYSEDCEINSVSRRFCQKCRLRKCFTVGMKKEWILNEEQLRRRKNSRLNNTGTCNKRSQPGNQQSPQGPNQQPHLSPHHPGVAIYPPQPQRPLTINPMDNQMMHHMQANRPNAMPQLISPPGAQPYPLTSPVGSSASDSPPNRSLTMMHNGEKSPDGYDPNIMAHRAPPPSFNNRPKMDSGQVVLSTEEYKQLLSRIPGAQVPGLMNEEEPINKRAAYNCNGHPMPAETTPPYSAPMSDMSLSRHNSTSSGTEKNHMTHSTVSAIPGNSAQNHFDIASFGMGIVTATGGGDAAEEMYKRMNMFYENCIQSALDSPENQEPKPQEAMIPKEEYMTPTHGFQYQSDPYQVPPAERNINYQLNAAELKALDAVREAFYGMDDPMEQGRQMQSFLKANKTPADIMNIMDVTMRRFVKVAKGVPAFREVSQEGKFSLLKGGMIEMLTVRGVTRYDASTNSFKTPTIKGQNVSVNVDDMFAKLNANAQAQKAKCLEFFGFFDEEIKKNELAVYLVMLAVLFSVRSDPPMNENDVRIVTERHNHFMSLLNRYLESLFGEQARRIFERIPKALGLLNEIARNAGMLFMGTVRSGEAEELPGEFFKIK
In words: lin-42::GFP reporter agonist response. The class given is in vivo, C. elegans. An excerpt:
(§1) Chimeric proteins made with the daf-12 nuclear hormone receptor (NHR) can be used for discovery of agonist and antagonist of human NHRs and detect ligands of human NHRs. In C. elegans, the daf-12 protein activity is a key regulator of development. When daf-12 is activated by dafachronic acid under normal growth conditions, animals will proceed to their reproductive life stage. However, when animals face unfavorable conditions, dafachronic acid is not produced and the dauer program is activated leading animals into a stress-resistant arrested state. The unfavorable conditions can be mimicked by treatment with a DAF-12 antagonist, dafadine. Dafadine treatment overcomes the growth condition signal and animals enter the arrested state. Reporter lines can be used to monitor daf-12 chimera activity. In order to create reporter lines for agonist and antagonist discovery, the transcriptional response to treatment with dafachronic acid or dafadine was determined. Dauer animals were treated with 500 nM dafachronic acid and harvested for RNA preparation after four hours of exposure. RNA samples were processed and sent for RNA sequence analysis. […]
(§2) In this illustrative example, animals in the first larval stage were treated with 100uM dafadine for four hours and harvested for RNA preparation and analysis. Two reporter lines were identified by observation of fluorescence after drug treatment. […]

For test [4] the following is noted: mouse model; combination with cannabidiol; cited from earlier work.
The test system of test [5] is STXBP1(R406H). As to conditions: strain containing the R406H variant exposed to trehalose; cited from earlier work.
The target in test [6] is T1, DAF-12. In words: mtl-1::GFP reporter antagonist response. The format is in vivo, C. elegans.
Source text: as §1, §2

A word on the EC50: it is the concentration giving half of the maximal effect.

Read-outs that look alike come from different tables or passages of the source.

Regarding `NCCc1c[nH]c2ccc(O)cc12` [serotonin, 5-Hydroxytryptamine], the “rate of pharyngeal pumping in SLC6A4 line” value in test [1] is reported as “restored”.

Regarding dafachronic acid, the EC50 is 0.017 µM in test [2] (dafachronic acid, FIG. 3E, read-out: EC50, animal's phenotypic response) and approximately 0.49 nM in test [3] (titrated with dafachronic acid, FIG. 3D). Moreover, in test [3] (lin-42::GFP reporter vs phenotype), the “sensitivity of reporter versus phenotypic assay” value is listed as “at least 40 x”.

For the compound `CC[C@@H](C(N)=O)N1CCCC1=O` [levetiracetam], in test [4], the “interaction with CBD” value is “acts synergistically”.

`OC[C@H]1O[C@H](O[C@H]2O[C@H](CO)[C@@H](O)[C@H](O)[C@H]2O)[C@H](O)[C@@H](O)[C@@H]1O` [trehalose]: the “levels of aldicarb-induced paralysis” value in test [5] was “increase to wild-type levels”.

`NC(=O)N1c2ccccc2C=Cc2ccccc21` [carbamazepine]: the “interaction with CBD” value in test [4] is reported as “antagonize”.

Turning to dafadine, the EC50 in test [2] (dafadine, read-out: EC50, phenotypic assay) was 48 µM; in test [6] (titrated with dafadine, FIG. 3C), 5.2 µM. The “sensitivity of reporter versus phenotypic assay” value in test [6] (mtl-1::GFP reporter vs phenotypic assay) was 9 x.
